Test results from paper PMC5884648, “Relationship between the agonist activity of synthetic ligands of TRAIL-R2 and their cell surface binding modes” (Oncotarget, 2018).
*1 amine or outer side, *2 acyl side, *3 side chain or, on linkers, in order; H or OH if unused. Where a SMILES comes first, the peptide text is derived from it. Bridges are numbered along the chain shown (N, C = ends). Roman numbers before positions name the chains, in order. X2 = NC(CCC(=O)[*:1])CCC(=O)[*:2]

What was measured:
[1] = test system: BJAB cells; assay: Cell viability MTS assay, BJAB; format: cell-based, human; conditions: 24 hours
Protocol: (§1) BJAB, Jurkat and HCT116 cells (10^5 cells/well) were cultured in 100 µL of culture medium in 96-flat bottom well plates. The next day, cells were treated with the indicated concentrations of the different TRAILmin/DR5 peptides. After 24 hours of treatment cell viability measurement was performed by the MTS assay according to the manufacturer specification (Promega Corporation, Madison, WI, USA).

[2] = test system: HCT116 cells; assay: Cell viability MTS assay, HCT116; format: cell-based, human; conditions: 24 hours
Protocol: as §1

[3] = test system: Jurkat cells; assay: Cell viability MTS assay, Jurkat; format: cell-based, human; conditions: 24 hours
Protocol: as §1

[4] = target: T1, human TRAIL-R2 (Homo sapiens, UniProt O14763); assay: Surface plasmon resonance on sensor-immobilized TRAIL-R2; format: binding; conditions: for koff / kon: SPR, 25° C, Langmuir model
T1 construct: purchased Enzo Life Sciences
T1 sequence (O14763 56-440): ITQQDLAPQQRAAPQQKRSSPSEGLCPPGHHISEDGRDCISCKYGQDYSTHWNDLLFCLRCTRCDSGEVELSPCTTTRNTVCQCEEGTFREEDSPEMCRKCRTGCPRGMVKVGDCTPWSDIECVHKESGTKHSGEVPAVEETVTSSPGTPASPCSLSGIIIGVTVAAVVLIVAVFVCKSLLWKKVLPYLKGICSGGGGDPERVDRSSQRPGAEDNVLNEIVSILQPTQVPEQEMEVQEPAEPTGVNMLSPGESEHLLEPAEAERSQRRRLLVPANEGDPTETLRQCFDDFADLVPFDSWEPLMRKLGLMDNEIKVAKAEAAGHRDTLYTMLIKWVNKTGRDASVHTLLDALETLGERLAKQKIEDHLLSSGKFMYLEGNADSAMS
Protocol: SPR assays were performed on a Biacore T200™, at 25° C. The running buffer was HBS-EP [10 mM HEPES (pH 7.4) containing 0.15 M NaCl, 3.4 mM EDTA and 0.005% (v/v) Tween P20]. The human TRAIL-R2 (Enzo Life Sciences, Farmingdale, NY, USA) receptor was immobilized on a sCM5 sensor chip (GE Healthcare) using the standard amine coupling procedure. The receptors were diluted in 10 mM acetate buffer (pH 5.0) at a concentration of 5 μg/mL. The TRAIL-R2 immobilization level on the sensor chip was 430 RU. Peptides were injected at a flow rate of 5 μL/min for 120 s and allowed to dissociate for an additional 420 s. Surfaces were then regenerated for 5 s with 25 mM HCl. All binding curves were double-referenced (i.e. subtraction of the data of the empty flow cell followed by the subtraction of the data from a running buffer injection cycle).
Double-referenced SPR binding curves sets were fitted globally using the BIAevaluation 4.1.1 (GE Healthcare Biacore) or TraceDrawer (Ridgeview Diagnostics AB, Uppsala, Sweden) softwares. The signal recorded with the LigandTracer on an empty spot or slide was subtracted from that recorded on cell-carrying slides. The resulting binding curves were analyzed by kinetic distribution analysis using the tool Interaction Map (Ridgeview Diagnostics AB, Uppsala, Sweden). Interaction Map decomposes the kinetic curve recorded for the binding of a homogeneous ligand to a heterogeneous group of targets into its different components. Results are represented as interaction maps (kon versus koff, log scale), where the color of each populated area represents its degree of contribution to the kinetic curve (red = high contribution, blue = low contribution).

[5] = TRAIL-R2 surface 1, one:one interaction model
[6] = TRAIL-R2 surface 2, one:one interaction model

koff [4] [s⁻¹] | kon [4] [M⁻¹ s⁻¹] | Rmax [4, 5] | Rmax [4, 6] | SMILES | apoptosis induction in BJAB cells [1] | apoptosis induction in HCT116 cells [2] | apoptosis induction in Jurkat cells [3]
0.0014 | 28000 | 38 | 13 | CC[C@H](C)[C@@H]1NC(=O)[C@H](CCCNC(=N)N)NC(=O)[C@H](CC(N)=O)NC(=O)[C@H](CC(=O)O)NC(=O)[C@H](CC(C)C)NC(=O)[C@@H](NC(=O)[C@H](CC(=O)O)NC(=O)[C@H](Cc2c[nH]c3ccccc23)NC(C)=O)CSSC[C@@H](C(=O)N[C@H](C(=O)N[C@@H](CCCCNC(=O)CCC(N)CCC(=O)NCCCC[C@H](NC(=O)[C@@H](NC(=O)[C@@H]2CSSC[C@H](NC(=O)[C@H](CC(=O)O)NC(=O)[C@H](Cc3c[nH]c4ccccc34)NC(C)=O)C(=O)N[C@@H](CC(C)C)C(=O)N[C@@H](CC(=O)O)C(=O)N[C@@H](CC(N)=O)C(=O)N[C@@H](CCCNC(=N)N)C(=O)N[C@@H]([C@@H](C)CC)C(=O)NCC(=O)N[C@@H](CCCNC(=N)N)C(=O)N[C@@H](CCCNC(=N)N)C(=O)N[C@@H](CCC(N)=O)C(=O)N2)C(C)C)C(=O)N[C@@H](CC(C)C)C(N)=O)C(=O)N[C@@H](CC(C)C)C(N)=O)C(C)C)NC(=O)[C@H](CCC(N)=O)NC(=O)[C@H](CCCNC(=N)N)NC(=O)[C@H](CCCNC(=N)N)NC(=O)CNC1=O (some centres unmarked) [1d] (I: Ac-WDCLDNRIGRRQCVKL-NH2 / II: Ac-WDCLDNRIGRRQCVKL-NH2; disulfide I:3-I:13, II:3-II:13; linker I:15-II:15 via X2; N-terminus and C-terminus assumed) | underwent apoptosis | strong resistance | strong resistance
0.0026 | 5300 | 33 | 11 | CC[C@H](C)[C@@H]1NC(=O)[C@H](CCCNC(=N)N)NC(=O)[C@H](CC(N)=O)NC(=O)[C@H](CC(=O)O)NC(=O)[C@H](CC(C)C)NC(=O)[C@@H](NC(=O)[C@H](CC(=O)O)NC(=O)[C@H](Cc2c[nH]c3ccccc23)NC(C)=O)CSSC[C@@H](C(=O)N[C@H](C(=O)N[C@@H](CCCCN)C(=O)N[C@@H](CC(C)C)C(N)=O)C(C)C)NC(=O)[C@H](CCC(N)=O)NC(=O)[C@H](CCCNC(=N)N)NC(=O)[C@H](CCCNC(=N)N)NC(=O)CNC1=O [1m] (Ac-WDCLDNRIGRRQCVKL-NH2; disulfide 3-13; N-terminus and C-terminus assumed) |  |  | 
